Assay results from publication PMC3723878 (PLoS ONE, 2013).
Changes are numbered by the printed parent chain.

Columns and labels:
Assay in all cases: Saturation binding of ^125I-HEAT
[1] = molecular target: T1, human α1A-AR F308A variant (Homo sapiens, UniProt P35348, F308A)
T1 construct: expressed in transfected cells; host or cells: COS-7 (transient, calcium phosphate), membranes
T1 sequence (P35348 1-466 F308A): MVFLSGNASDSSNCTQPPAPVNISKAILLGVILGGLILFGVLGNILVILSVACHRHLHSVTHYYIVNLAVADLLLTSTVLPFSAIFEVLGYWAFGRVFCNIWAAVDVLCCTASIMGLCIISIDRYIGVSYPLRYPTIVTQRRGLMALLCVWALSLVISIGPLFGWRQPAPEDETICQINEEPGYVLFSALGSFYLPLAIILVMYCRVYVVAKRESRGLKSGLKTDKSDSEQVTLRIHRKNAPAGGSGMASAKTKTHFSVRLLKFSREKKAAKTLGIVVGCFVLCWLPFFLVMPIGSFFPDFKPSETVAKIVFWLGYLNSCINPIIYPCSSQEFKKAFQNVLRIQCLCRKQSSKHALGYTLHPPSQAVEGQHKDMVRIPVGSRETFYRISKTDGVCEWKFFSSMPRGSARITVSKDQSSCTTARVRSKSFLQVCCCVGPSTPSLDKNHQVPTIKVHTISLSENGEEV
Excerpt: (§1) α1A-AR cDNA inserted in the prK5 vector was kindly provided by Michael Brownstein (Craig Venter Institute, Rockville, MD). Point mutations were introduced into the α1A-AR gene by sense and antisense primers (Sigma-Aldrich, St Quentin-Fallavier, France) containing the desired changes, using the QuikChange Site-Directed Mutagenesis kit. The incorporation of each mutation was verified by DNA sequencing.
(§2) CHO cells stably expressing α1-ARs were kindly provided by Dr. Hervé Paris (INSERM U858, Toulouse, France) and were grown in a 50∶50 Dulbecco's Modified Eagle's Medium (DMEM)/Ham's F12 medium supplemented with 10% (v/v) foetal bovine serum (FBS), glutamine (2 mM), penicillin (100 units/ml) and streptomycin (100 µg/ml) at 37°C with 5% CO2. COS-7 cells were grown at 37°C under 5% CO2 in Dulbecco's modified Eagle's medium containing 10% fetal calf serum, 1% penicillin and 1% glutamine (Sigma-Aldrich, St Quentin-Fallavier, France). At 80% confluence, the cells were transfected using a calcium phosphate precipitation method for transient expression of the genetic construct. After 48 h incubation at 37°C, cells were harvested and the membranes were prepared as follow. Cells were washed with ice-cold phosphate buffer and centrifuged at 1700 g for 10 min (4°C). The pellet was suspended in ice-cold buffer (1 mM EDTA, 25 mM sodium phosphate, and 5 mM MgCl2, pH 7.4) and homogenized using an Potter-Elvehjem homogenizer (Fisher Scientific Labosi, Elancourt, France). The homogenate was centrifuged at 1700 g for 15 min (4°C). The sediment was resuspended in buffer, homogenized, and centrifuged at 1700 g for 15 min (4°C). The combined supernatants were centrifuged at 35,000 g for 30 min (4°C), and the pellet was suspended in the same buffer (0.1 ml/dish). […] Cells were grown in a 50∶50 Dulbecco's Modified Eagle's Medium (DMEM)/Ham's F12 medium supplemented with 10% (v/v) foetal bovine serum (FBS), glutamine (2 mM), penicillin (100 units/ml) and streptomycin (100 µg/ml) at 37°C with 5% CO2. Media was changed every 2–3 days and cells were passaged when confluent with 0.05% trypsin and 0.02% EDTA.
(§3) Binding experiments were performed in a 100 µL reaction mix at room temperature in buffer composed of 50 mM Tris-HCl, pH 7.4, 10 mM MgCl2, 1 g/L BSA. Reactions were stopped by filtration through 96 GF/C filter plates pre-incubated with 0.5% polyethylenimine.
(§4) Binding data were analyzed by nonlinear regression using the KaleidaGraph 4.0 software (Synergy software, Reading, PA). pKD values and Bmax (number of binding sites) were determined by applying a nonlinear regression to data obtained with saturation binding assays. The nonlinear regression used was BS = (Bmax*A)/KD+A, where BS is the specific binding, Bmax the number of binding sites, A the concentration of radioligand, and KD the dissociation constant of the radioligand. Data resulting from competition binding assays were analyzed using the Hill equation for IC50 and curve slope estimations. […] The linear curves were analyzed with IC50 = Ki+(L/KD)*Ki. Dissociation kinetics were analyzed using a simple equation of exponential decay BS * exp (-Koff*t), where BS is the specific binding at time zero and Koff is the dissociation rate constant. Results are expressed as mean ± s.e. mean from n independent experiments. One-way Anova test was used to compare values. A p<0.05 was accepted for statistical significance.

[2] = molecular target: T2, human α1A-AR F281A variant (Homo sapiens, UniProt P35348, F281A)
T2 construct: expressed in transfected cells; host or cells: COS-7, transient (calcium phosphate)
T2 sequence (P35348 1-466 F281A): T1 sequence (P35348 1-466 F308A) with F281A, A308F
Excerpt: as §1, §2, §3, §4

[3] = molecular target: T3, human α1A-AR F312A variant (Homo sapiens, UniProt P35348, F312A)
T3 construct: expressed in transfected cells; host or cells: COS-7 (transient, calcium phosphate), membranes
T3 sequence (P35348 1-466 F312A): T1 sequence (P35348 1-466 F308A) with A308F, F312A
Excerpt: as §1, §2, §3, §4

Compound: O=C1c2ccccc2CCC1CNCCc1ccc(O)c([125I])c1 (stereo not drawn) [125I-HEAT]
- ^125I-HEAT Ratio (loss of affinity relative to WT) ([1]; F308A): 2.4
- ^125I-HEAT pKd ([1]; F308A (7.35), saturation binding, n = 3–6): 9.66±0.11
- ^125I-HEAT Ratio (loss of affinity relative to WT) ([2]; F281A): 3.9
- ^125I-HEAT pKd ([2]; F281A (6.44), saturation binding, n = 3–6): 9.46±0.09
- ^125I-HEAT Ratio (loss of affinity relative to WT) ([3]; F312A): 0.44
- ^125I-HEAT pKd ([3]; F312A (7.39), saturation binding, n = 3–6): 10.40±0.10
